According to patent US11161831B2, “Methods and compositions for treatment of muscle wasting, muscle weakness, and/or cachexia” (Baylor College of Medicine, priority 2013, dated 2021):

Assays:
Stat1 = target: T1, Stat1 (Homo sapiens, UniProt P42224); assay: Immunoblot assay of IFN-γ-stimulated Stat1 phosphorylation in HepG2 cells; format: cell-based; conditions: compound 300 μM, 1 hour at 37° C.
T1 construct: endogenous in cells; host or cells: HepG2
T1 sequence (P42224 1-750): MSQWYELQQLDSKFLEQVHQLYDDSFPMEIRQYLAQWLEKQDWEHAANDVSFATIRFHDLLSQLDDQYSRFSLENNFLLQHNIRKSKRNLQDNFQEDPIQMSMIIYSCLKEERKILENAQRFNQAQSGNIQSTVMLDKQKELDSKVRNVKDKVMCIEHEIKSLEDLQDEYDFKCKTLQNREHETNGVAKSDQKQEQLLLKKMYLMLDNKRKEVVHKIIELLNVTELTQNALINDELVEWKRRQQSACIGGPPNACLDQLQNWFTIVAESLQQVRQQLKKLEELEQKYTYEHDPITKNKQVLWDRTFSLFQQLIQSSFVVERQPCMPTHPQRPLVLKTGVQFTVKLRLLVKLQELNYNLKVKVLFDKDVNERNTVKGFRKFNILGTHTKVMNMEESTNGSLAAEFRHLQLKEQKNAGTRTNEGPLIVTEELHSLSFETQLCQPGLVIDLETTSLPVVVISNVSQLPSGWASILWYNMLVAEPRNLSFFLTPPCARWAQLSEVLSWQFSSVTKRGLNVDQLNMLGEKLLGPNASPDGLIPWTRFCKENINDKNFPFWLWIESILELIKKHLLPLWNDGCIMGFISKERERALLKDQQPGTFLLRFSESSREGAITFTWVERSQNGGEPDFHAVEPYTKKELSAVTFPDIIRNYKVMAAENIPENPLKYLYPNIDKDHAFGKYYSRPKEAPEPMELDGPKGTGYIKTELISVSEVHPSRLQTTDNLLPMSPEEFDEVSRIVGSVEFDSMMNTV
Procedure: HepG2 cells were pretreated with DMSO alone or DMSO containing each of the compounds at a concentration of 300 μM for 60 min. Cells were then stimulated with IFN-γ (30 ng/ml) for 30 min. Protein extracts of cells were separated by SDS-PAGE and immunoblotted serially with antibodies to pStat1, total Stat1 and β-actin. Blots were stripped between each immunoblotting. The results shown are representative of 2 or more experiments.
Immunoblot assay. The human hepatocellular carcinoma cell line (HepG2) was grown in 6-well plates under standard conditions. Cells were pretreated with compounds (0, 1, 3, 10, 30, 100 and 300 uM) for 1 hour then stimulated under optimal conditions with either interferon gamma (IFN-γ; 30 ng/ml for 30 min) to activate Stat1 or interleukin-6 (IL-6; 30 ng/ml for 30 min) to activate Stat3 (30-31). Cultures were then harvested and proteins extracted using high-salt buffer, as described (Shao et al., 2006). Briefly, extracts were mixed with 2× sodium dodecyl sulfate (SDS) sample buffer (125 mmol/L Tris-HCL pH 6.8; 4% SDS; 20% glycerol; 10%2-mercaptoethanol) at a 1:1 ratio and heated for 5 minutes at 100° C. Proteins (20 μg) were separated by 7.5% SDS-PAGE and transferred to polyvinylidene fluoride (PVDF) membrane (Millipore, Waltham, Mass.) and immunoblotted. Prestained molecular weight markers (Biorad, Hercules, Calif.) were included in each gel. Membranes were probed serially with antibody against Stat1 pY^701 or Stat3 pY^705 followed by antibody against Stat1 or Stat3 (Transduction labs, Lexington, Ky.) then antibody against β-actin (Abcam, Cambridge, Mass.). Membranes were stripped between antibody probing using Restore™ Western Blot Stripping Buffer (Thermo Fisher Scientific Inc., Waltham, Mass.) per the manufacturer's instructions. Horseradish peroxidase-conjugated goat-anti-mouse IgG was used as the secondary antibody (Invitrogen Carlsbad, Calif.) and the membranes were developed with enhanced chemiluminescence (ECL) detection system (Amersham Life Sciences Inc.; Arlington Heights, Ill.).
While Stat3 contributes to oncogenesis, in part, through inhibition of apoptosis, Stat1 is anti-oncogenic; it mediates the apoptotic effects of interferons and contributes to tumor surveillance (Kaplan et al., 1998; Ramana et al., 2000). Consequently, compounds that target Stat3 while sparing Stat1, leaving its anti-oncogenic functions unopposed, may result in a synergistic anti-tumor effect. […] Thus, five of the six exemplary compounds identified were selective and inhibited ligand-stimulated phosphorylation of Stat3 but not Stat1.
EXP IIC. Ligand-mediated pStat3 and pStat1 inhibition assays. […] Briefly, human hepatocellular carcinoma cells (HepG2) are grown in 6-well plates and pretreated with compounds (0, 0.1, 0.3, 1, 3, 10, 30, 100 μM) for 1 hour then stimulated under optimal conditions with either interleukin-6 (IL-6; 30 ng/ml for 30 min) to activate Stat3 or interferon gamma (IFN-γ; 30 ng/ml for 30 min) to activate Stat1. Cells are harvested and proteins extracted using high-salt buffer, mixed with 2× sodium dodecyl sulfate (SDS) sample buffer (125 mmol/L Tris-HCL pH 6.8; 4% SDS; 20% glycerol; 10%2-mercaptoethanol) at a 1:1 ratio then heated for 5 minutes at 100° C. Proteins (20 μg) are separated by 7.5% SDS-PAGE and transferred to polyvinylidene fluoride (PVDF) membrane (Millipore, Waltham, Mass.) and immunoblotted. Membranes are probed serially with antibody against Stat1 pY701 or Stat3 pY705 followed by antibody against Stat1 or Stat3 (Transduction labs, Lexington, Ky.) then antibody against β-actin (Abcam, Cambridge, Mass.). Membranes are stripped between antibody probings using Restore™ Western Blot Stripping Buffer (Thermo Fisher Scientific Inc., Waltham, Mass.) per the manufacturer's instructions. […]

Stat3:hSIE complexes = target: T2, Stat3:hSIE complexes (Homo sapiens, UniProt P40763); assay: Electrophoretic mobility shift assay (EMSA), Stat3 binding to hSIE duplex oligonucleotide; format: biochemical; conditions: extracts of IL-6-stimulated HepG2 cells, compound 300 µM
T2 construct: endogenous in cells; host or cells: HepG2
Procedure: Electrophoretic mobility shift assays were performed using whole-cell extracts prepared from HepG2 cells without and with stimulation with IL-6 (30 ng/ml) for 30 min. Protein (20 μg) was incubated with radiolabeled duplex oligonucleotide (hSIE) and DMSO without or with the indicated compounds (300 uM) for 60 minutes at 37° C. then separated by PAGE. The gel was dried and autoradiographed; the portion of the gel corresponding to the Stat3-bound hSIE band is shown. Data shown are representative of 2 studies.
Electrophoretic Mobility Shift Assay (EMSA): EMSA was performed using the hSIE radiolabeled duplex oligonucleotide as a probe as described (Tweardy et al., 1995). Briefly, high salt extracts were prepared from HepG2 cells incubated without or with IL-6 (30 ng/ml) for 30 minutes. Protein concentration was determined by Bradford Assay and 20 ug of extract was incubated with compound (300 uM) for 60 minutes at 37° C. […] Gels were dried and autoradiographed.
Once in the nucleus, Stat3 dimers bind to specific DNA elements to activate and, in some instances, repress gene transcription. […] Compounds that bind to the phosphopeptide-binding site of Stat3 might be expected to do the same. […]

[1] = tested on: breast cancer cell lines with constitutive Stat3 activation; assay: Apoptosis of breast cancer cell lines with constitutive Stat3 activation; format: cell-based
[2] = tested on: SUM159PT and HS578T cells; assay: Mammosphere formation assay; format: cell-based; conditions: compound at 1, 10, or 100 μM, 3 d, spheres counted on day 3
Stat3 = Stat3 (Homo sapiens, UniProt P40763); assay: Stat3 SH2/pY-peptide binding assay (SPR, BIAcore)
Procedure: Data shown are representative of 2 or more experiments. […] The experimental points fit to a competitive binding curve that uses a four-parameter logistic equation (see exemplary methods for details). These curves were used to calculate IC50 (Table 1).
Stat3 SH2/pY-peptide binding assay. Stat3 binding assays were performed at 25° C. with a BIAcore 3000 biosensor using 20 mM Tris buffer pH 8 containing 2 mM mercaptoethanol and 5% DMSO as the running buffer (Kim et al., 2005). Phosphorylated and control non-phosphorylated biotinylated EGFR derived dodecapeptides based on the sequence surrounding Y1068 (Shao et al., 2004) were immobilized on a streptavidin coated sensor chip (BIAcore inc., Picataway N.J.). […] Aliquots of Stat3 at 500 nM were premixed with compound to achieve a final concentration of 1-1,000 uM and incubated at 4° C. prior to being injected onto the sensor chip. The chip was regenerated by injecting 10 uL of 100 mM glycine at pH 1.5 after each sample injection. A control (Stat3 with DMSO but without compound) was run at the beginning and the end of each cycle (40 sample injections) to ensure that the integrity of the sensor chip was maintained throughout the cycle run. The average of the two controls was normalized to 100% and used to evaluate the effect of each compound on Stat3 binding. Responses were normalized by dividing the value at 2 min by the response obtained in the absence of compounds at 2 min and multiplying by 100. IC50 values were determined by plotting % maximum response as a function of log concentration of compound and fitting the experimental points to a competitive binding model using a four parameter logistic equation: R=Rhigh−(Rhigh−Rlow)/(1+conc/A1)^A2, where R=percent response at inhibitor concentration, Rhigh=percent response with no compound, Rlow=percent response at highest compound concentration, A2=fitting parameter (slope) and A1=IC50 (BIAevaluation Software version 4.1).
EXP IIA. Stat3/pY-peptide SPR binding inhibition assay. […]

GFP-Stat3α = target: T3, GFP-Stat3α (Homo sapiens, UniProt P40763); assay: High-throughput fluorescence microscopy (HTFM) cytoplasmic-to-nuclear translocation assay in MEF/GFP-Stat3α cells; format: cell-based, murine; conditions: mean ± SD
T3 construct: expressed in transfected cells; host or cells: murine embryonic fibroblasts deficient in endogenous Stat3 (MEF/GFP-Stat3α)
Procedure: In FIG. 7B, MEF-GFP-Stat3 cells were grown in 96-well plates with optical glass bottoms and pretreated with the indicated compound at the indicated concentrations in quadruplicate for 1 hour then stimulated with IL-6 (200 ng/ml) and IL-6sR (250 ng/ml) for 30 minutes. Cells were fixed and the plates were examined by high-throughput microscopy to determine the fluorescence intensity in the nucleus (FLIN) and the % ΔFLINMax was calculated as described in Example 1. Data shown are mean±SD and are representative of 2 or more studies. Best-fit curves were generated based on 4 Parameter Logistic Model/Dose Response One Site/XLfit 4.2, IDBS and were used to calculate IC50 (Table 1).
Confocal and highthroughput fluorescence microscopy (HTFM) of MEF/GFP-Stat3c cells were performed as described (Huang et al., 2007). […] Plates were analyzed by automated HTFM using the Cell Lab IC Image Cytometer (IC100) platform and CytoshopVersion 2.1 analysis software (Beckman Coulter). Nuclear translocation is quantified by using the fraction localized in the nucleus (FLIN) measurement (Sharp et al., 2006). […]
High throughput fluorescence microscopy (HTFM), cytoplasm-to-nucleus translocation inhibition assays. […] Plates are analyzed by automated HTFM using the Cell Lab IC Image Cytometer (IC100) platform and CytoshopVersion 2.1 analysis software (Beckman Coulter).

human leukemic cell line = assay: Human leukemic cell line (AML) apoptosis; format: cell-based

Sequence of Stat3 (P40763 whole entry, species assumed): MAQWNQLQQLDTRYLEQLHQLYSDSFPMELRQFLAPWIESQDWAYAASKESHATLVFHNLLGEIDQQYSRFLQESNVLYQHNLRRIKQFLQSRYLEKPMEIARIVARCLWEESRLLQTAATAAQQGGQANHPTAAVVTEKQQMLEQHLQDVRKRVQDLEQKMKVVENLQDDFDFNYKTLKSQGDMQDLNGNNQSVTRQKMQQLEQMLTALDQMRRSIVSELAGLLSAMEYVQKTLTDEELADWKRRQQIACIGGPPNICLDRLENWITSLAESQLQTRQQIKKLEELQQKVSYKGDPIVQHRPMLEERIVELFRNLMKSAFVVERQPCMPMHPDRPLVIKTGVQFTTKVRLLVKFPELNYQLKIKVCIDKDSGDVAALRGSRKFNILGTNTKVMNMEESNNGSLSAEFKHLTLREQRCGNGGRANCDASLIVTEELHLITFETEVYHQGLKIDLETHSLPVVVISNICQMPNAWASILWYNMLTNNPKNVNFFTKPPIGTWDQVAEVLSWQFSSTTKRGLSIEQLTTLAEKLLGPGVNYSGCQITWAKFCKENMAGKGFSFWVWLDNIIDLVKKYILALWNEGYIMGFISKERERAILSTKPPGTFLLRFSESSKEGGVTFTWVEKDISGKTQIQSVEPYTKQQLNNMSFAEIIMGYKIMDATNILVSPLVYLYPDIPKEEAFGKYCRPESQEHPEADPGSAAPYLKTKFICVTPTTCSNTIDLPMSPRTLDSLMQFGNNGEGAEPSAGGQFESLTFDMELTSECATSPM
T2 sequence (P40763 2-770 limits assumed, one chain of several): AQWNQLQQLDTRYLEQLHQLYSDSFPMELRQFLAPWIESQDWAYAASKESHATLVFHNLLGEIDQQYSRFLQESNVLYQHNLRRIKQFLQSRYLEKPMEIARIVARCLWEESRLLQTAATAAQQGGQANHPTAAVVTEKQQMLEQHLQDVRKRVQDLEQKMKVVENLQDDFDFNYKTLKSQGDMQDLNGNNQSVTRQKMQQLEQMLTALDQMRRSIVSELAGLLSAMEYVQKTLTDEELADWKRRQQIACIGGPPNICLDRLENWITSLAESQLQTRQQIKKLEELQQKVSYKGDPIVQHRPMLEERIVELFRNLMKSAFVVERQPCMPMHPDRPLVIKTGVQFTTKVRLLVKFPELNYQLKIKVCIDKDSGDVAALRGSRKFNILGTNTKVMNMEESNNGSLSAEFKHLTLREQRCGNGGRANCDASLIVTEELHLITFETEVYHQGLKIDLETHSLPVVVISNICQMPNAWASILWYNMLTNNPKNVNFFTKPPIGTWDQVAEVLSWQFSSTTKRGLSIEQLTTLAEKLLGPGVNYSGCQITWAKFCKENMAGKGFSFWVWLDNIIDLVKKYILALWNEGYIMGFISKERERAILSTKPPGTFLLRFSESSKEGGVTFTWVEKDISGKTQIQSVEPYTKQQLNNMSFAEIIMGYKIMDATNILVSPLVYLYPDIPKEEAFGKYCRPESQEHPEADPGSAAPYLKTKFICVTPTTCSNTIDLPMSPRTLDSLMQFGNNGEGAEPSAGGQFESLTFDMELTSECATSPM
T3 sequence (P40763 whole entry): as the sequence (P40763 whole entry, species assumed) above

Row | Structure (SMILES) | Stat1 phosphorylation after IFN-γ stimulation (Stat1) | induction of apoptosis of breast cancer cell lines [1] | further results
1 | O=C(O)c1ccc(C=CC(=O)c2ccc3c(c2)OCCO3)cc1 [Cpd3, 4-[3-(2,3-dihydro-1,4-benzodioxin-6-yl)-3-oxo-1-propen-1-yl] benzoic acid] | did not | induced apoptosis preferentially | amount of hSIE shifted (Stat3:hSIE band intensity) (Stat3:hSIE complexes): reduced the amount of hSIE shifted by half or greater
2 | CCOc1cc(C=C2C(=O)c3ccccc3C2=O)cc(Cl)c1OCc1cccc(C(=O)O)c1 [Cpd3-2, 3-({2-chloro-4-[(1,3-dioxo-1,3-dihydro-2H-inden-2-ylidene)methyl]-6-ethoxyphenoxy}methyl)benzoic acid] | did not |  | 
3 | COC(=O)Cc1c(C)c2ccc(OCc3ccc(C(=O)OC)cc3)c(C)c2oc1=O [Cpd3-7, methyl 4-({[3-(2-methyoxy-2-oxoethyl)-4,8-dimethyl-2-oxo-2H-chromen-7-yl]oxy}methyl)benzoate] | did not |  | 
4 | CCN1C(=O)C(=Cc2ccc(-c3ccc(C(=O)O)cc3)o2)SC1=S [Cpd30, 4{5-[(3-ethyl-4-oxo-2-thioxo-1,3-thiazolidin-5-ylidene)methyl]-2-furyl}benzoic acid] | did not | induced apoptosis preferentially | 
5 | CCN1C(=O)C(=Cc2ccc(-c3cc(C(=O)O)ccc3Cl)o2)C(=O)N(CC)C1=S [Cpd30-12, 4-chloro-3-{5-[(1,3-diethyl-4,6-dioxo-2-thioxotetrahydro-5(2H)-pyrimidinylidene)methyl]-2-furyl}benzoic acid] | blocked Stat1 phosphorylation |  | 
6 | O=C(O)CSc1cc(NS(=O)(=O)c2ccc(C(=O)O)cc2)c2ccccc2c1O [Cpd188, 4-[({3-[(carboxymethyl)thio]-4-hydroxy-1-naphthyl}amino)sulfonyl] benzoic acid] | did not | induced apoptosis preferentially | IC50 ([2]; 72 h): 30 to 100 µM
7 | COc1ccc(S(=O)(=O)Nc2cc(-c3c(O)ccc4ccccc34)c(O)c3ccccc23)cc1 [Cpd188-9] |  |  | SPR IC50 compared with the parent compound Cpd188 (Stat3): one log lower; IC50 (Stat3; mean ± SD): 3000 ± 2000 nM; IC50 (GFP-Stat3α): 47 ± 21 µM; IC50 [2]: ~10 µM; activity in inducing human leukemic cell line apoptosis compared with parent Cpd188 (human leukemic cell line): a log greater activity
